How the values were obtained:
Assay type in all cases: in vivo
[1] = tested on: Poa annua; experiment: Herbicidal early post-emergence action (96-well microtiter plates), POAAN; conditions: 1900 g/ha, scored 9 to 12 days after treatment, 100% = plants have died, 0% = like untreated control plants
Text: (§1) In the examples and tables below, the following abbreviations are used: • Undesired Plants/Weeds: • ABUTH: Abutilon theophrasti • AGSTE: Agrostis tenuis • AMARE Amaranthus retroflexus • ECHCG: Echinochloa crus-galli • LOLRI: Lolium rigidum • MATIN: Matricaria inodora • POAAN: Poa annua • SETVI: Setaria viridis • STEME: Stellaria media A. Herbicidal Early Post-Emergence Action Seeds of monocotyledonous and dicotyledonous weed plants were placed in 96-well microtiter plates in quartz sand and grown in a climatized chamber under controlled growth conditions. 5 to 7 days after sowing, the test plants were treated at the cotyledon stage. The compounds according to the invention, formulated in the form of emulsion concentrates (EC), were applied with a water application rate of the equivalent of 2200 liters per hectare. After the test plants had been left to stand in the climatized chamber for 9 to 12 days under optimum growth conditions, the effect of the preparations was scored visually in comparison to untreated controls. Here, for example, 100% activity=the plants have died, 0% activity=like untreated control plants. Tables A1 to A2 below show the effects of selected compounds of the general formula (I) according to Table 1 above on various harmful plants and an application rate corresponding to 1900 g/ha, which were obtained by the experimental procedure mentioned above.

[2] = tested on: Agrostis tenuis; experiment: Herbicidal early post-emergence action (96-well microtiter plates), AGSTE; conditions: 1900 g/ha, scored 9 to 12 days after treatment, 100% = plants have died, 0% = like untreated control plants
Text: as §1

[3] = tested on: Amaranthus retroflexus; experiment: Herbicidal pre-emergence action (greenhouse pots), AMARE; conditions: 1280 g/ha, visual scoring after about 3 weeks vs untreated controls
Text: (§2) In the examples and tables below, the following abbreviations are used: • Undesired Plants/Weeds: • ABUTH: Abutilon theophrasti • AGSTE: Agrostis tenuis • AMARE Amaranthus retroflexus • ECHCG: Echinochloa crus-galli • LOLRI: Lolium rigidum • MATIN: Matricaria inodora • POAAN: Poa annua • SETVI: Setaria viridis • STEME: Stellaria media A. Herbicidal Early Post-Emergence Action Seeds of mono- and dicotyledonous weed plants were placed in plastic pots in sandy loam soil (doubly sown with one species each of mono- or dicotyledonous weed plants per pot) and covered with soil. The compounds of the invention, formulated in the form of wettable powders (WP) or as emulsion concentrates (EC), were then applied onto the surface of the covering soil as aqueous suspension or emulsion with addition of 0.5% additive at a water application rate of 600 liters per hectare (converted). After the treatment, the pots were placed in a greenhouse and kept under good growth conditions for the test plants. After about 3 weeks, the effect of the preparations was scored visually in comparison with untreated controls as percentages. For example, 100% activity=the plants have died, 0% activity=like untreated control plants. Tables C1-C8 below show the effects of selected compounds of the general formula (I) according to Table 1 above on various harmful plants and an application rate corresponding to 1280 g/ha, which were obtained by the experimental procedure mentioned above.

[4] = tested on: Setaria viridis; experiment: Herbicidal pre-emergence action (greenhouse pots), SETVI; conditions: 1280 g/ha, visual scoring after about 3 weeks vs untreated controls
Text: as §2

[5] = tested on: Amaranthus retroflexus; experiment: Herbicidal post-emergence action (greenhouse pots), AMARE; conditions: 1280 g/ha, visual rating about 3 weeks after treatment vs untreated controls
Text: In the examples and tables below, the following abbreviations are used: • Undesired Plants/Weeds: • ABUTH: Abutilon theophrasti • AGSTE: Agrostis tenuis • AMARE Amaranthus retroflexus • ECHCG: Echinochloa crus-galli • LOLRI: Lolium rigidum • MATIN: Matricaria inodora • POAAN: Poa annua • SETVI: Setaria viridis • STEME: Stellaria media A. Herbicidal Early Post-Emergence Action Seeds of mono- and dicotyledonous weed plants were placed in plastic pots in sandy loam soil (doubly sown with in each case one species of mono- or dicotyledonous weed plants per pot), covered with soil and cultivated in a greenhouse under controlled growth conditions. 2 to 3 weeks after sowing, the test plants were treated at the one-leaf stage. The compounds of the invention, formulated in the form of wettable powders (WP) or as emulsion concentrates (EC), were applied onto the green parts of the plants as aqueous suspension or emulsion with addition of 0.5% additive at a water application rate of 600 liters per hectare (converted). After the test plants had been kept in the greenhouse under optimum growth conditions for about 3 weeks, the activity of the preparations was rated visually in comparison to untreated controls. For example, 100% activity=the plants have died, 0% activity=like untreated control plants. Tables B1-B8 below show the effects of selected compounds of the general formula (I) according to Table 1 above on various harmful plants and an application rate corresponding to 1280 g/ha, which were obtained by the experimental procedure mentioned above.

[6] = tested on: Stellaria media; experiment: Herbicidal pre-emergence action (greenhouse pots), STEME; conditions: 1280 g/ha, visual scoring after about 3 weeks vs untreated controls
Text: as §2

[7] = tested on: Poa annua; experiment: Herbicidal pre-emergence action (greenhouse pots), POAAN; conditions: 1280 g/ha, visual scoring after about 3 weeks vs untreated controls
Text: as §2

SMILES | POAAN (herbicidal activity, scored visually in comparison to untreated controls) [1] [%] | AGSTE (herbicidal activity, scored visually in comparison to untreated controls) [2] [%] | herbicidal activity AMARE [3] [%] | herbicidal activity SETVI [4] [%] | herbicidal activity AMARE [5] [%] | herbicidal activity STEME [6] [%] | herbicidal activity POAAN [7] [%]
Fc1ccc(Oc2c(F)cccc2Nc2ccc(Cl)cn2)cc1 [Example 1-40] | 80 | 80 |  |  |  |  | 
N#Cc1cccc(Nc2ccc(Br)cn2)c1Oc1ccc(F)cc1 [Example 1-143] |  | 80 |  |  |  |  | 
CC(C)Oc1ccc(Nc2cccc(C#N)c2Oc2ccc(F)cc2)nc1 [Example 1-342] |  |  | 100 | 100 | 100 |  | 
Clc1ccc(Oc2c(Cl)cccc2Nc2ncc(Cl)cn2)cc1 [Example 1-341] | 100 | 100 |  |  | 100 | 90 | 
N#Cc1ccc(Nc2cccc(C#N)c2Oc2ccc(F)cc2)nc1 [Example 1-145] | 80 |  | 90 |  |  |  | 
N#Cc1cccc(Nc2ncc(F)cn2)c1Oc1cc(F)cc(F)c1 [Example 1-273] |  | 80 | 100 | 90 | 100 |  | 
CN(C)c1cccc(Nc2ncc(Cl)cn2)c1Oc1ccc(F)cc1 [Example 1-366] | 80 | 100 |  |  |  |  | 
CCSc1cccc(Nc2ncc(Cl)cn2)c1Oc1ccc(F)cc1 [Example 1-376] | 80 | 80 |  |  |  |  | 
Nc1c([N+](=O)[O-])cc(Nc2ncc(Cl)cn2)c(Oc2ccc(F)cc2)c1Cl [Example 2-101, 2-Chloro-4-(5-chloropyrimidin-2-ylamino)-3-(4-fluorophenoxy)-6-nitroaniline] | 80 | 100 |  |  |  |  | 
N#Cc1cccc(Nc2ccc(Br)cn2)c1Oc1ccc(F)c(F)c1 [Example 1-144] | 100 | 100 |  |  |  |  | 
CSc1cccc(Nc2ncc(Cl)cn2)c1Oc1ccc(F)cc1 [Example 1-328] | 80 | 80 |  |  |  |  | 
N#Cc1cccc(Nc2ncc(Cl)cn2)c1Oc1cccc(C(F)(F)F)c1 [Example 1-297] | 80 | 100 |  | 100 | 100 |  | 
COc1cccc(Nc2ncc(Cl)cn2)c1Oc1ccc(F)cc1 [Example 1-324] | 80 | 100 |  |  |  |  | 
N#Cc1cccc(Nc2ccc(Cl)cn2)c1Oc1ccc(F)c(F)c1 [Example 1-129] |  | 100 |  | 90 | 100 | 90 | 
N#Cc1cccc(Nc2ncc(Cl)cn2)c1Oc1cc(F)cc(F)c1 [Example 1-292] | 80 | 100 | 100 | 90 | 100 |  | 
Cc1ccc(Nc2cccc(C#N)c2Oc2ccc(F)cc2)nc1 [Example 1-149] |  | 100 | 100 |  | 100 |  | 
COc1cccc(Oc2c(C#N)cccc2Nc2ncc(F)cn2)c1 [Example 1-281] |  | 100 |  |  |  |  | 
N#Cc1cccc(Nc2ccc(Cl)cn2)c1Oc1ccc(F)cc1 [Example 1-124] | 100 | 100 |  |  | 100 |  | 
CNc1cccc(Nc2ncc(Cl)cn2)c1Oc1ccc(F)cc1 [Example 1-365] |  | 100 |  |  |  |  | 
N#Cc1cccc(Nc2ncccn2)c1Oc1cc(F)ccc1F [Example 1-252] |  |  | 90 |  |  |  | 
N#Cc1cccc(Nc2ncc(Cl)cn2)c1Oc1cc(F)ccc1F [Example 1-290] |  | 80 | 90 |  | 100 |  | 90
Fc1ccc(Oc2c(Cl)cccc2Nc2ccc(Cl)cn2)cc1 [Example 1-75] | 80 | 100 |  |  |  |  | 
N#Cc1cccc(Nc2ncccn2)c1Oc1ccccc1F [Example 1-246, 2-(2-Fluorophenoxy)-3-(pyrimidin-2-ylamino)benzonitrile] |  | 80 | 100 | 100 | 100 | 100 | 
Fc1ccc(Oc2c(Br)cccc2Nc2ncc(Cl)cn2)cc1 [Example 1-358] | 100 | 100 |  |  |  |  | 
Cc1cccc(Nc2ccc(Cl)cn2)c1Oc1ccc(F)cc1 [Example 1-79] | 100 | 80 |  |  |  |  | 100
N#Cc1ccc(Nc2cccc(C#N)c2Oc2ccc(F)c(F)c2)nc1 [Example 1-146] |  | 80 |  |  |  |  | 
N#Cc1cccc(Nc2ncc(Cl)cn2)c1Oc1ccccc1F [Example 1-284] | 100 | 100 | 100 | 100 | 100 | 90 | 

From patent publication US12415786B2, “Substituted 2-heteroarylaminobenzenes and the salts thereof and their use as herbicidal agents” (Bayer Aktiengesellschaft, priority 2019, dated 2025)
